# Assay results from paper PMC9161086, “Water-Soluble Trichogin GA IV-Derived Peptaibols Protect Tomato Plants From Botrytis cinerea Infection With Limited Impact on Plant Defenses” (Frontiers in Plant Science, 2022).
# Legend:
# [1] = system: Solanum lycopersicum cv. Micro-Tom leaves; assay: ROS detection with H2DCFDA on tomato leaves; conditions: 50 μM in water, 10-μl droplets on abaxial surface of detached Micro-Tom leaves; 24 and 48 h; H2DCFDA fluorescence microscopy
# [2] = Hydrophilicity evaluated from HPLC retention times; format: physicochemical; conditions: comparison to native Trichogin GA IV, C18 column Phenomenex Jupiter 5 μm, 300 Å, 250 × 4.5 mm, gradient 60%–100% B in 30 min, A H2O/CH3CN 9:1 0.05% TFA, B CH3CN/H2O 9:1 0.05% TFA
# [3] = parameters: method as in De Zotti et al., 2009; conditions: ref De Zotti et al., 2009; cited from earlier work
# [4] = system: methicillin-resistant human pathogens; conditions: ref De Zotti et al., 2009; cited from earlier work
Compound,ROS production on tomato leaves [1],Hydrophilicity [2],Resistance to proteolysis [3],Antibacterial activity against methicillin-resistant human pathogens [4]
CCCCCCCC(=O)NC(C)(C)C(=O)NCC(=O)N[C@@H](CC(C)C)C(=O)NC(C)(C)C(=O)N[C@@H](CCCCN)C(=O)NC(C)(C)C(=O)N[C@@H](CC(C)C)C(=O)NC(C)(C)C(=O)NCC(=O)N[C@H](C(=O)N[C@@H](CC(C)C)C(N)=O)[C@@H](C)CC [Pep 6r],only Pep 4-treated leaves showed ROS production,+,–,–
"1-octanoyl-Aib-Gly-Leu-Aib-Gly-Gly-Leu-Aib-Gly-Ile-Lol [Trichogin GA IV, 11-residue lipopeptaibol naturally produced by Trichoderma longibrachiatum]",–,–,remarkable resistance to proteolysis,antibacterial activity
